In patent publication US20250179061A1 (SIRONAX LTD., priority 2022, published 2025):
pIC50: −log10 of the molar value. Like-named read-outs stand apart in the source and are kept apart here.

System: HT-29 cells
Assay: HT-29 necroptosis cell viability assay (TNF-α/SMAC mimetic/zVAD-FMK, CellTiter-Glo)
Type: cell-based
Details: Homo sapiens
In short: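 Necroptosis was triggered by TNF-α (10 ng/ml), SMAC mimetic (6 μM) and zVAD-FMK (10 μM) in serum-free medium during 20 h compound exposure (10 concentrations, threefold steps) of HT-29 cells. IC50 from duplicate dose-responses uses CellTiter-Glo ATP luminescence as viability read-out.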

[1] = HT-29, HT-29 necroptosis cell viability, IC50 class symbols, read-out: Activity
[2] = HT-29, HT-29 necroptosis cell viability assay, class symbols for IC50, read-out: Activity
[3] = HT-29 cells stimulated with TNF-α (10 ng/ml), SMAC mimetic (6 μM) and zVAD-FMK (10 μM), 20 hours, CellTiter-Glo ATP luminescence, geometric mean IC50 from 10 points, read-out: Activity
[4] = HT-29, HT-29 cells, necroptosis induced by TNF-α/SMAC mimetic/zVAD-FMK, CellTiter-Glo, read-out: Activity (IC50 class)

## C[C@@H]1[C@H](C#N)CN1c1nccc(Oc2ccc(-n3ncn(Cc4c(F)cccc4F)c3=O)cc2F)c1F [Example 389, (2R,3R)-1-(4-(4-(4-(2,6-difluorobenzyl)-5-oxo-4,5-dihydro-1H-1,2,4-triazol-1-yl)-2-fluorophenoxy)-3-fluoropyridin-2-yl)-2-methylazetidine-3-carbonitrile]
[1]
  pIC50: > 7.00

## CCOC1CN(c2cc(Oc3ccc(-n4ncn(Cc5c(Cl)cccc5Cl)c4=O)cc3)ccn2)C1 [Example 486, 4-(2,6-dichlorobenzyl)-2-(4-((2-(3-ethoxyazetidin-1-yl)pyridin-4-yl)oxy)phenyl)-2,4-dihydro-3H-1,2,4-triazol-3-one]
[2]
  pIC50: 6.00 to 7.00

## Cc1nc(C(C)(C)O)sc1Oc1ccc(-n2ncn(Cc3c(F)cccc3F)c2=O)cc1Cl [Example 583, 2-(3-chloro-4-((2-(2-hydroxypropan-2-yl)-4-methylthiazol-5-yl)oxy)phenyl)-4-(2,6-difluorobenzyl)-2,4-dihydro-3H-1,2,4-triazol-3-one]
[2]
  pIC50: > 7.00

## Cc1nc(C(C)(C)O)sc1Oc1ccc(-n2ncn(Cc3cc(F)ccc3F)c2=O)cc1F [Example 470, 4-(2,5-difluorobenzyl)-2-(3-fluoro-4-((2-(2-hydroxypropan-2-yl)-4-methylthiazol-5-yl)oxy)phenyl)-2,4-dihydro-3H-1,2,4-triazol-3-one]
[1]
  pIC50: > 7.00

## Cc1nc(C2COC2)sc1Oc1ccc(-n2ncn(Cc3c(F)cccc3F)c2=O)cc1 [Example 42, 4-(2,6-difluorobenzyl)-2-(4-((4-methyl-2-(oxetan-3-yl)thiazol-5-yl)oxy)phenyl)-2,4-dihydro-3H-1,2,4-triazol-3-one]
[3]
  pIC50: > 7.00

## N#Cc1ccccc1Oc1ccc(-n2ncn(Cc3c(F)cccc3F)c2=O)cc1 [Example 404, 2-(4-(4-(2,6-difluorobenzyl)-5-oxo-4,5-dihydro-1H-1,2,4-triazol-1-yl)phenoxy)benzonitrile]
[1]
  pIC50: 6.00 to 7.00

## CC1(Nc2cc(Oc3ccc(-n4ncn(Cc5c(F)cccc5F)c4=O)cc3)ccn2)COC1 [Example 531, 4-(2,6-difluorobenzyl)-2-(4-((2-((3-methyloxetan-3-yl)amino)pyridin-4-yl)oxy)phenyl)-2,4-dihydro-3H-1,2,4-triazol-3-one]
[2]
  pIC50: < 5.00

## Cc1nc(C2=CCOCC2)sc1Oc1ccc(-n2ncn(Cc3c(F)cccc3F)c2=O)cc1 [Example 631, 4-(2,6-difluorobenzyl)-2-(4-((2-(3,6-dihydro-2H-pyran-4-yl)-4-methylthiazol-5-yl)oxy)phenyl)-2,4-dihydro-3H-1,2,4-triazol-3-one]
[4]
  pIC50: > 7.00

## COC(=O)c1ncc(Oc2ccc(-n3ncn(Cc4c(F)cccc4F)c3=O)cc2F)s1 [Example 105, methyl 5-(4-(4-(2,6-difluorobenzyl)-5-oxo-4,5-dihydro-1H-1,2,4-triazol-1-yl)-2-fluorophenoxy)thiazole-2-carboxylate]
HT-29, 20 h, read-out: Activity
  pIC50: 6.00 to 7.00

## Cc1nc([C@H](C)O)sc1Oc1ccc(-n2nc3n(c2=O)[C@H](c2ccccc2)CC3)cc1F (single isomer, unassigned) [Example 151]
[2]
  pIC50: > 7.00

## CC1(C#N)CN(c2cc(Oc3ccc(-n4ncn(Cc5c(F)cccc5F)c4=O)cc3F)c(Cl)cn2)C1 [Example 257, 1-(5-chloro-4-(4-(4-(2,6-difluorobenzyl)-5-oxo-4,5-dihydro-1H-1,2,4-triazol-1-yl)-2-fluorophenoxy)pyridin-2-yl)-3-methylazetidine-3-carbonitrile]
[1]
  pIC50: > 7.00

## Cc1nc(C(N)C(F)F)sc1Oc1ccc(-n2ncn(Cc3c(F)cccc3F)c2=O)cc1F (stereo not shown) [Example 447, 2-(4-((2-(1-amino-2,2-difluoroethyl)-4-methylthiazol-5-yl)oxy)-3-fluorophenyl)-4-(2,6-difluorobenzyl)-2,4-dihydro-3H-1,2,4-triazol-3-one]
[1]
  pIC50: > 7.00

## CCc1c(Oc2ccc(-n3nc4n(c3=O)[C@H](c3ccccc3)CC4)cc2F)nsc1C(N)=O (single isomer, unassigned) [Example 686]
[3]
  pIC50: > 7.00

## NC(=O)c1scnc1Oc1ccc(-n2ncn(Cc3c(F)cccc3F)c2=O)cc1F [Example 101, 4-(4-(4-(2,6-difluorobenzyl)-5-oxo-4,5-dihydro-1H-1,2,4-triazol-1-yl)-2-fluorophenoxy)thiazole-5-carboxamide]
[3]
  pIC50: 6.00 to 7.00

## Cc1nc(Oc2ccc(-n3ncn(Cc4c(F)cccc4F)c3=O)cc2)sc1C [Example 78, 4-(2,6-difluorobenzyl)-2-(4-((4,5-dimethylthiazol-2-yl)oxy)phenyl)-2,4-dihydro-3H-1,2,4-triazol-3-one]
[3]
  pIC50: 6.00 to 7.00

## Cc1nc(C(=O)NC2COC2)sc1Oc1ccc(-n2nc3n(c2=O)[C@H](c2ccccc2)CC3)cc1F [Example 21, (S)-5-(2-fluoro-4-(3-oxo-5-phenyl-6,7-dihydro-3H-pyrrolo[2,1-c][1,2,4]triazol-2(5H)-yl)phenoxy)-4-methyl-N-(oxetan-3-yl)thiazole-2-carboxamide]
[3]
  pIC50: > 7.00

## Cc1nc(N2CC(C)(C#N)C2)sc1Cc1ccc(-n2ncn(Cc3c(F)cccc3F)c2=O)cc1 [Example 512, 1-(5-(4-(4-(2,6-difluorobenzyl)-5-oxo-4,5-dihydro-1H-1,2,4-triazol-1-yl)benzyl)-4-methylthiazol-2-yl)-3-methylazetidine-3-carbonitrile]
[2]
  pIC50: > 7.00

## CN(c1cc(Oc2ccc(-n3ncn(Cc4c(F)cccc4F)c3=O)cc2)ccn1)C1CC1 [Example 485, 2-(4-((2-(cyclopropyl(methyl)amino)pyridin-4-yl)oxy)phenyl)-4-(2,6-difluorobenzyl)-2,4-dihydro-3H-1,2,4-triazol-3-one]
[2]
  pIC50: 6.00 to 7.00

## CC(C)(N)C1CN(c2cc(Oc3ccc(-n4ncn(Cc5c(F)cccc5F)c4=O)cc3F)c(F)cn2)C1 [Example 374, 2-(4-((2-(3-(2-aminopropan-2-yl)azetidin-1-yl)-5-fluoropyridin-4-yl)oxy)-3-fluorophenyl)-4-(2,6-difluorobenzyl)-2,4-dihydro-3H-1,2,4-triazol-3-one]
[1]
  pIC50: 6.00 to 7.00

## Cc1nc(C(N)=O)sc1Oc1ccc(-n2ncn(Cc3c(F)cccc3F)c2=O)cc1Cl [Example 88, 5-(2-chloro-4-(4-(2,6-difluorobenzyl)-5-oxo-4,5-dihydro-1H-1,2,4-triazol-1-yl)phenoxy)-4-methylthiazole-2-carboxamide]
[3]
  pIC50: > 7.00

## O=c1n(Cc2c(F)cccc2F)cnn1-c1ccc(Oc2ccnc(N3CCC4(CCOC4)C3)c2)cc1 (stereo not shown) [Example 330, 2-(4-((2-(2-oxa-7-azaspiro[4.4]nonan-7-yl)pyridin-4-yl)oxy)phenyl)-4-(2,6-difluorobenzyl)-2,4-dihydro-3H-1,2,4-triazol-3-one]
[1]
  pIC50: > 7.00

## N#CC12CC(Nc3nccc(Oc4ccc(-n5ncn(Cc6c(F)cccc6F)c5=O)cc4Cl)c3F)(C1)C2 [Example 391, 3-((4-(2-chloro-4-(4-(2,6-difluorobenzyl)-5-oxo-4,5-dihydro-1H-1,2,4-triazol-1-yl)phenoxy)-3-fluoropyridin-2-yl)amino)bicyclo[1.1.1]pentane-1-carbonitrile]
[1]
  pIC50: 6.00 to 7.00

## Cc1nc(C(C)(C)O)n(C)c1Oc1ccc(-n2ncn(Cc3c(F)cccc3F)c2=O)cc1F [Example 133, 4-(2,6-difluorobenzyl)-2-(3-fluoro-4-((2-(2-hydroxypropan-2-yl)-1,4-dimethyl-1H-imidazol-5-yl)oxy)phenyl)-2,4-dihydro-3H-1,2,4-triazol-3-one]
[2]
  pIC50: 6.00 to 7.00

## Cc1nc(C(N)=O)cn1Cc1ccc(-n2nc3n(c2=O)C(c2ccccc2)CC3)cc1F (stereo not shown) [Example 102, 1-(2-fluoro-4-(3-oxo-5-phenyl-6,7-dihydro-3H-pyrrolo[2,1-c][1,2,4]triazol-2(5H)-yl)benzyl)-2-methyl-1H-imidazole-4-carboxamide]
[3]
  pIC50: > 7.00

## Cc1nc(C2=CCCC2)sc1Oc1ccc(-n2ncn(Cc3c(F)cccc3F)c2=O)cc1 [Example 546, 2-(4-((2-(cyclopent-1-en-1-yl)-4-methylthiazol-5-yl)oxy)phenyl)-4-(2,6-difluorobenzyl)-2,4-dihydro-3H-1,2,4-triazol-3-one]
[2]
  pIC50: > 7.00

## N#Cc1ncc(Oc2ccc(-n3ncn(Cc4c(F)cccc4F)c3=O)cc2)s1 [Example 79, 5-(4-(4-(2,6-difluorobenzyl)-5-oxo-4,5-dihydro-1H-1,2,4-triazol-1-yl)phenoxy)thiazole-2-carbonitrile]
[3]
  pIC50: > 7.00

## C[C@H]1[C@H](C#N)CN1c1cc(Oc2ccc(-n3ncn(Cc4c(F)cccc4F)c3=O)cc2F)c(F)cn1 [Example 232, (2S,3R)-1-(4-(4-(4-(2,6-difluorobenzyl)-5-oxo-4,5-dihydro-1H-1,2,4-triazol-1-yl)-2-fluorophenoxy)-5-fluoropyridin-2-yl)-2-methylazetidine-3-carbonitrile]
[1]
  pIC50: > 7.00

## N#Cc1cc(Oc2ccc(-n3ncn(Cc4c(F)cccc4F)c3=O)cc2)ccn1 [Example 405, 4-(4-(4-(2,6-difluorobenzyl)-5-oxo-4,5-dihydro-1H-1,2,4-triazol-1-yl)phenoxy)picolinonitrile]
[1]
  pIC50: 6.00 to 7.00

## O=c1n(Cc2c(F)ccc(F)c2F)cnn1-c1ccc(Oc2ccnc(N3CC4(CCOCC4)C3)c2)cc1 [Example 288, 2-(4-((2-(7-oxa-2-azaspiro[3.5]nonan-2-yl)pyridin-4-yl)oxy)phenyl)-4-(2,3,6-trifluorobenzyl)-2,4-dihydro-3H-1,2,4-triazol-3-one]
[1]
  pIC50: 6.00 to 7.00

## COc1ncccc1Cc1ccc(-n2ncn(Cc3c(F)cccc3F)c2=O)cc1 [Example 683, 4-(2,6-difluorobenzyl)-2-(4-((2-methoxypyridin-3-yl)methyl)phenyl)-2,4-dihydro-3H-1,2,4-triazol-3-one]
[4]
  pIC50: > 7.00

## Cc1ncc(C#N)n1Cc1ccc(-n2ncn(Cc3c(F)cccc3F)c2=O)cc1 [Example 185, 1-(4-(4-(2,6-difluorobenzyl)-5-oxo-4,5-dihydro-1H-1,2,4-triazol-1-yl)benzyl)-2-methyl-1H-imidazole-5-carbonitrile]
[2]
  pIC50: 6.00 to 7.00
